Laboratory results published in ChEMBL document CHEMBL1629634, “Postantibiotic effect of tigecycline against 14 gram-positive organisms” (Antimicrob Agents Chemother, 2009).
Values after ≈ are worked out from the molar mass of the structure shown.

Assays:
Streptococcus pneumoniae [1] = experiment: Antibacterial activity against penicillin-susceptible Streptococcus pneumoniae assessed as sub-MIC effect at 0.3 times MIC concentration incubated for 1 hr by viable plate count method; assay type: functional
Haemophilus influenzae [2] = experiment: Antibacterial activity against amoxicillin, clavulanate-resistant Haemophilus influenzae expressing beta-lactamase assessed as sub-MIC effect at 0.4 times MIC concentration incubated for 1 hr by viable plate count method; assay type: functional
Haemophilus influenzae [3] = experiment: Antibacterial activity against beta-lactamase deficient and ampicillin-resistant Haemophilus influenzae assessed as sub-MIC effect at 0.3 times MIC concentration incubated for 1 hr by viable plate count method; assay type: functional
Enterococcus faecalis [4] = experiment: Antibacterial activity against vancomycin-sensitive Enterococcus faecalis assessed as sub-MIC effect at 0.3 times MIC concentration incubated for 1 hr by viable plate count method; assay type: functional
Haemophilus influenzae [5] = experiment: Antibacterial activity against amoxicillin, clavulanate-resistant Haemophilus influenzae expressing beta-lactamase assessed as post antibiotic effect at 10 times MIC concentration incubated for 1 hr measured after 1:1000 dilution by viable plate count method; assay type: functional
Streptococcus pneumoniae [6] = experiment: Antibacterial activity against penicillin-resistant Streptococcus pneumoniae assessed as sub-MIC effect at 0.2 times MIC concentration incubated for 1 hr by viable plate count method; assay type: functional
Staphylococcus aureus [7] = experiment: Antibacterial activity against vancomycin-sensitive methicillin-resistant Staphylococcus aureus assessed as post-antibiotic sub-MIC effect at 0.4 times MIC concentration pretreated with 6 times MIC concentration for 1 hr followed by 1:1000 dilution by viable plate count method; assay type: functional
Escherichia coli [8] = experiment: Antibacterial activity against Escherichia coli infected in neutropenic mouse thighs assessed as post antibiotic effect; assay type: functional, Thigh muscle
Staphylococcus aureus [9] = experiment: Antibacterial activity against vancomycin-intermediate methicillin-resistant Staphylococcus aureus assessed as post-antibiotic sub-MIC effect at 0.2 times MIC concentration pretreated with 10 times MIC concentration for 1 hr followed by 1:1000 dilution by viable plate count method; assay type: functional
Haemophilus influenzae [10] = experiment: Antibacterial activity against amoxicillin, clavulanate-resistant Haemophilus influenzae expressing beta-lactamase assessed as post antibiotic effect at 6 times MIC concentration incubated for 1 hr measured after 1:1000 dilution by viable plate count method; assay type: functional
Enterococcus faecium = experiment: Antibacterial activity against Enterococcus faecium assessed as post antibiotic effect; assay type: functional
Enterobacter cloacae [11] = experiment: Antibacterial activity against Enterobacter cloacae assessed as sub-MIC effect at 0.3 times MIC concentration incubated for 1 hr by viable plate count method; assay type: functional
Enterococcus faecalis [12] = experiment: Antibacterial activity against vancomycin-resistant Enterococcus faecalis assessed as sub-MIC effect at 0.3 times MIC concentration incubated for 1 hr by viable plate count method; assay type: functional
Streptococcus pneumoniae [13] = experiment: Antibacterial activity against penicillin-resistant Streptococcus pneumoniae assessed as sub-MIC effect at 0.3 times MIC concentration incubated for 1 hr by viable plate count method; assay type: functional
Klebsiella pneumoniae [14] = experiment: Antibacterial activity against Klebsiella pneumoniae assessed as post antibiotic effect; assay type: functional
Staphylococcus aureus [15] = experiment: Antibacterial activity against vancomycin-intermediate methicillin-resistant Staphylococcus aureus assessed as post-antibiotic sub-MIC effect at 0.4 times MIC concentration pretreated with 10 times MIC concentration for 1 hr followed by 1:1000 dilution by viable plate count method; assay type: functional
Staphylococcus aureus [16] = experiment: Antibacterial activity against vancomycin-sensitive methicillin-resistant Staphylococcus aureus assessed as sub-MIC effect at 0.4 times MIC concentration incubated for 1 hr by viable plate count method; assay type: functional
Staphylococcus aureus [17] = experiment: Antibacterial activity against vancomycin-intermediate methicillin-resistant Staphylococcus aureus assessed as post-antibiotic sub-MIC effect at 0.3 times MIC concentration pretreated with 10 times MIC concentration for 1 hr followed by 1:1000 dilution by viable plate count method; assay type: functional
Enterobacter cloacae [18] = experiment: Antibacterial activity against Enterobacter cloacae assessed as sub-MIC effect at 0.2 times MIC concentration incubated for 1 hr by viable plate count method; assay type: functional
Streptococcus pneumoniae [19] = experiment: Antibacterial activity against penicillin-intermediate Streptococcus pneumoniae assessed as post antibiotic effect at 10 times MIC concentration incubated for 1 hr measured after 1:1000 dilution by viable plate count method; assay type: functional
Enterobacter cloacae [20] = experiment: Antibacterial activity against Enterobacter cloacae assessed as post-antibiotic sub-MIC effect at 0.2 times MIC concentration pretreated with 10 times MIC concentration for 1 hr followed by 1:1000 dilution by viable plate count method; assay type: functional
Haemophilus influenzae [21] = experiment: Antibacterial activity against beta-lactamase deficient and ampicillin-resistant Haemophilus influenzae by macrodilution method; assay type: functional
Enterococcus faecalis [22] = experiment: Antibacterial activity against vancomycin-resistant Enterococcus faecalis assessed as post-antibiotic sub-MIC effect at 0.3 times MIC concentration pretreated with 10 times MIC concentration for 1 hr followed by 1:1000 dilution by viable plate count method; assay type: functional
Haemophilus influenzae [23] = experiment: Antibacterial activity against amoxicillin, clavulanate-resistant Haemophilus influenzae expressing beta-lactamase assessed as post-antibiotic sub-MIC effect at 0.3 times MIC concentration pretreated with 10 times MIC concentration for 1 hr followed by 1:1000 dilution by viable plate count method; assay type: functional
Streptococcus pneumoniae [24] = experiment: Antibacterial activity against penicillin-intermediate Streptococcus pneumoniae assessed as post-antibiotic sub-MIC effect at 0.3 times MIC concentration pretreated with 10 times MIC concentration for 1 hr followed by 1:1000 dilution by viable plate count method; assay type: functional
Enterobacter cloacae [25] = experiment: Antibacterial activity against Enterobacter cloacae assessed as post-antibiotic sub-MIC effect at 0.4 times MIC concentration pretreated with 10 times MIC concentration for 1 hr followed by 1:1000 dilution by viable plate count method; assay type: functional
Staphylococcus aureus [26] = experiment: Antibacterial activity against vancomycin-sensitive methicillin-resistant Staphylococcus aureus assessed as sub-MIC effect at 0.3 times MIC concentration incubated for 1 hr by viable plate count method; assay type: functional
Acinetobacter baumannii [27] = experiment: Antibacterial activity against Acinetobacter baumannii assessed as post-antibiotic sub-MIC effect at 0.2 times MIC concentration pretreated with 10 times MIC concentration for 1 hr followed by 1:1000 dilution by viable plate count method; assay type: functional
Klebsiella pneumoniae [28] = experiment: Antibacterial activity against Klebsiella pneumoniae by macrodilution method; assay type: functional
Streptococcus pneumoniae [29] = experiment: Antibacterial activity against penicillin-susceptible Streptococcus pneumoniae assessed as post antibiotic effect at 10 times MIC concentration incubated for 1 hr measured after 1:1000 dilution by viable plate count method; assay type: functional
Haemophilus influenzae [30] = experiment: Antibacterial activity against beta-lactamase deficient and ampicillin-resistant Haemophilus influenzae assessed as post antibiotic effect at 10 times MIC concentration incubated for 1 hr measured after 1:1000 dilution by viable plate count method; assay type: functional
Streptococcus pneumoniae [31] = experiment: Antibacterial activity against penicillin-intermediate Streptococcus pneumoniae assessed as post-antibiotic sub-MIC effect at 0.4 times MIC concentration pretreated with 10 times MIC concentration for 1 hr followed by 1:1000 dilution by viable plate count method; assay type: functional
Acinetobacter baumannii [32] = experiment: Antibacterial activity against Acinetobacter baumannii by macrodilution method; assay type: functional
Enterobacter cloacae [33] = experiment: Antibacterial activity against Enterobacter cloacae assessed as post-antibiotic sub-MIC effect at 0.4 times MIC concentration pretreated with 2 times MIC concentration for 1 hr followed by 1:1000 dilution by viable plate count method; assay type: functional
Staphylococcus aureus [34] = experiment: Antibacterial activity against vancomycin-intermediate methicillin-resistant Staphylococcus aureus assessed as post antibiotic effect at 6 times MIC concentration incubated for 1 hr measured after 1:1000 dilution by viable plate count method; assay type: functional
Escherichia coli [35] = experiment: Antibacterial activity against Escherichia coli assessed as post-antibiotic sub-MIC effect at 0.2 times MIC concentration pretreated with 10 times MIC concentration for 1 hr followed by 1:1000 dilution by viable plate count method; assay type: functional

CN(C)c1cc(NC(=O)CNC(C)(C)C)c(O)c2c1C[C@H]1C[C@H]3[C@H](N(C)C)C(O)=C(C(N)=O)C(=O)[C@@]3(O)C(O)=C1C2=O [TIGECYCLINE]
PAE (Streptococcus pneumoniae [1]): 0 h | PAE (Haemophilus influenzae [2]): 1.9 h | PAE (Haemophilus influenzae [3]): 0.8 h | PAE (Enterococcus faecalis [4]): 0.2 h | PAE (Haemophilus influenzae [5]): 3.7 h | PAE (Streptococcus pneumoniae [6]): 0.5 h | PAE (Staphylococcus aureus [7]): 6.9 h | PAE (Escherichia coli [8]): 4.9 h | PAE (Staphylococcus aureus [9]): 6.6 h | PAE (Haemophilus influenzae [10]): 3.9 h | PAE (Enterococcus faecium): 2.5 h | PAE (Enterobacter cloacae [11]): 0.4 h | PAE (Enterococcus faecalis [12]): 0.3 h | PAE (Streptococcus pneumoniae [13]): 0.5 h | PAE (Klebsiella pneumoniae [14]): 2 h | PAE (Staphylococcus aureus [15]): 10 h | PAE (Staphylococcus aureus [16]): 0.9 h | PAE (Staphylococcus aureus [17]): 9.9 h | PAE (Enterobacter cloacae [18]): 0.2 h | PAE (Streptococcus pneumoniae [19]): 1.9 h | PAE (Enterobacter cloacae [20]): 3.6 h | MIC (Haemophilus influenzae [21]): 0.06 µg/mL (≈ 0.102 µM) | PAE (Enterococcus faecalis [22]): 10.5 h | PAE (Haemophilus influenzae [23]): 5.4 h | PAE (Streptococcus pneumoniae [24]): 8.8 h | PAE (Enterobacter cloacae [25]): 7.2 h | PAE (Staphylococcus aureus [26]): 0.2 h | PAE (Acinetobacter baumannii [27]): 6.7 h | MIC (Klebsiella pneumoniae [28]): 0.25 µg/mL (≈ 0.427 µM) | PAE (Streptococcus pneumoniae [29]): 3.7 h | PAE (Haemophilus influenzae [30]): 1.1 h | PAE (Streptococcus pneumoniae [31]): 8.8 h | MIC (Acinetobacter baumannii [32]): 0.12 µg/mL (≈ 0.205 µM) | PAE (Enterobacter cloacae [33]): 6.9 h | PAE (Staphylococcus aureus [34]): 4 h | PAE (Escherichia coli [35]): 2.4 h
